Results from patent publication US20120196918A1, “PREVENTING ISLET INFLAMMATION AND DYSFUNCTION AND MAINTAINING PROPER GLUCOSE LEVELS BY CONTROLLING eIF5A AND ITS HYPUSINATION” (priority 2009, published 2012).

System: eIF5A-Hyp binding to mRNA
Test: RNA immunoprecipitation with eIF5A antibody in cytokine-treated INS-1 cells
Format: cell-based, rat
Conditions: GC7 overnight, cytokines 4 h
Source text: The retention of both Nos2 transcripts and eIF5A in the nucleus upon inhibition of hypusination is consistent with a close relationship between the two molecules, such that eIF5A may serve to chaperone Nos2 transcripts from the nucleus to the cytoplasm in response to cytokine stimulation. eIF5A-Hyp binds to RNAs that contain the consensus sequence 5′-AAAUGU-3′ (47), which is present in the Nos2 mRNA. To determine if eIF5A-Hyp binds Nos2 mRNA, RNA immunoprecipitation assays using INS-1 cell total RNA were performed. […] In contrast, no co-precipitation of other NFkB target and non-target genes was observed.
RNA immunoprecipitation (RIP) assays: RIP assays from 1×10^7 formaldehyde cross-linked INS-1 cells were performed as described (75). Isotype-matched antibodies against eIF5A and the FLAG-M2 epitope (for control immunoprecipitations) were used at a final dilution of 1:100. Immunoprecipitated RNA was reversed transcribed and subjected to quantitative PCR amplification for selected genes as described above. All data represent the average of triplicate determinations from at least 3 independent RIP assays.

With NCCCCCCCN=C(N)N [GC7] the “co-precipitation of mRNA with eIF5A antibody” value was “no co-precipitation of any mRNA species”.
